US20250205158A1, “BIODEGRADABLE LIPIDS AND FORMULATIONS FOR DELIVERY OF MRNA” (Massachusetts Institute of Technology, priority 2023, published 2025)
“And” between values parts separate entries of the source, which are not always exact repeats. Identical values can stand only once. Like-named read-outs stand apart in the source and are kept apart here.

Legend:
[1] = test system: mice; settings: for protein expression relative to MD-1: in vitro and in vivo via intramuscular administration (FIGS. 6A-6B)
Protocol: Evaluation of the LNPs via intramuscular injection. The in vivo potency of the ionizable lipids was screened through intramuscular injection of LNPs loaded with mRNA encoding firefly luciferase protein. These LNPs were formulated with a molar composition of (35:16:46.5:2.5) using one of the synthesized ionizable lipids, DOPE as a helper lipid, cholesterol, and DMPE-PEG respectively. mRNA-loaded LNPs were intramuscularly administered in mice at a dose of 1 μg, and expression of luciferase protein was monitored at 6 hours via IVIS bioluminescent imaging (FIG. 3). […] Without wishing to be bound by theory, increased levels of protein expression may enhance the response to vaccination.
In Vitro and In Vivo Screening of AMG Lipid Library. Following synthesis, the mRNA delivery efficacy of the AMG lipids was evaluated through both in vitro and in vivo screens. To screen the first generation of AMG lipids (FIGS. 11B and 11C), firefly luciferase (FLuc) mRNA was encapsulated into LNPs using a previously reported formulation containing ionizable lipid, 1,2-dioleoyl-sn-glycero-3-phosphoethanolamine (DOPE), cholesterol, and 1,2-dimyristoyl-rac-glycero-3-methoxypolyethylene glycol-2000 (DMG-PEG).^19 C2C12 myoblast cells were treated with these LNPs and FLuc expression was evaluated at 24 hrs. (FIG. 16). […] Each of these batches was then injected IM into the quadriceps of mice, and expression was characterized via IVIS imaging (Screen 1, FIG. 11E).
AMG lipids for enhanced mRNA delivery and improved tolerability. A rational design approach was used to further vary the ionizable lipid structure to enhance the mRNA delivery and immunogenicity. […] The lipid tail structure was varied to promote efficient LNP self-assembly while simultaneously promoting endosomal membrane disruption.^18 Monounsaturated (G41-G44) or fully saturated (GC12-GC18) lipid tails were developed. […] Without wishing to be bound by any particular theory, tail length may impact membrane fusion and endosomal escape.^10,11
Next, the headgroup was further modified to further improve delivery. Headgroups play a multifunctional role including enhancing LNP-mRNA interactions, promoting membrane-LNP fusion and endosomal escape which all contribute to mRNA delivery.^23 A series of similar aza-crown ethers were used to further investigate structure-activity relationship and enhance mRNA delivery. These headgroups featured between three and eight nitrogens linked by varying length of methylene chains. Each of these headgroups were reacted with tail G41 to synthesize a next generation of AMG lipids, which were then formulated with FLuc mRNA and evaluated for mRNA delivery following IM administration in mice (FIG. 12B).

[2] = LNP characterization (diameter, PDI, % EE); assay type: physicochemical; settings: LNP formulated with the named lipid; for EE %: Ribogreen assay; for Diameter (nm) / PDI: dynamic light scattering
Protocol: Representative LNP Characterization Data. The diameter, polydispersity index (PDI), and % EE were characterized for various LNPs.
LNP characterization. Concentration of mRNA was determined using a Quant-IT Ribogreen assay. LNPs were diluted in either native TE buffer (ThermoFisher) or denaturing TE buffer+0.5% Triton-X 100 (Millipore-Sigma) to measure the “free” and total mRNA, respectively. 100 μL of these unknowns were added to a black 96-well plate. Separately, standard curves ranging from 2 ng/μL-0 ng/μL were prepared in each of these buffers and 100 μL were added to the same 96-well plate. Finally, Quant-IT Ribogreen reagent (ThermoFisher) was diluted 1:200 in TE buffer and 100 μL of this solution was added to each of the wells. The well plate was then mixed at 400 rpm with a plate shaker for 5 mins. and the fluorescence was read with an excitation/emission of 485/535. LNPs were measured in triplicate and standards were measured in duplicate. RNA concentration in each of the unknown wells was calculated by fitting the standard curves with a linear trendline. Encapsulation efficiency (% EE) was calculated according to: […]
Dynamic light scattering and zeta potential measurements were performed using a Malvern Zetasizer system. The reported diameter and PDI were obtained from the cumulants fit of the autocorrelation function. Zeta potential measurements were performed in 0.1×PBS, pH 7.4 and calculated using the Smoluchowski approximation.

[3] = Ethanol solubility of ionizable lipids; assay type: physicochemical
Excerpt: AMG lipids for enhanced mRNA delivery and improved tolerability.

[4] = test system: BALB/c mice; settings: spike mRNA LNPs on day 0 and day 21, serum day 35
Protocol: Briefly, 6-8 week old BALB/c mice were vaccinated with 1 g of mRNA LNPs on day 0 and on day 21, and serum was collected on day 35 to characterize the antibody response to vaccination.
Immunization studies. […] All LNPs were injected IM in the quadricep with an injection volume of 50 μL with the doses specified in the main text. All vaccination experiments followed a prime-boost dosing regimen with doses given on day 0 and day 21. On day 35, mice were sacrificed, and blood was collected via cardiac puncture and their spleens were collected for further characterization.
Binding antibody ELISAs. […] Plates were coated overnight at 4° C. by adding 100 μL of a 1 μg/mL antigen solution in 100 mM carbonate buffer, pH 9.6 to each well. The coated plates were then washed with ELISA wash buffer (Biolegend) and blocked for 1 hr. at room temperature (RT) with 150 μL of 1% BSA in PBS. The plate was then washed again, and 100 μL of serially diluted serum samples were then added to the plate and incubated at RT for 1 hr. Next, the plate was washed and the secondary goat anti-mouse IgG, HRP antibody (ThermoFisher) was diluted 1:3,000. 100 μL of this solution added to each well an incubated at RT for 1 hr. After incubation, the plate was washed and 100 μL of TMB chromogen solution (ThermoFisher) was added to each well and incubated for 30 mins. Finally, the HRP reaction was stopped by the addition of 100 μL of 0.5 M H2SO4. The absorbance of each well was immediately read at 450 nm with 600 nm as a reference using an Infinite M200 Pro (Tecan) plate reader. The resultant data were then fit with a 4-PL sigmodal curve and the endpoint titers were taken as the point at which this curve crossed four times the absorbance of the blank wells.

[5] = tissue not named

SMILES	protein expression relative to MD-1 [1]	EE % [2]	Diameter (nm) [2]	PDI [2]	further results
C/C=C\C/C=C\CCCCCC(=O)OCC(O)CN1CCN(CC(O)COC(=O)CCCCC/C=C\C/C=C\C)CCN(CC(O)COC(=O)CCCCC/C=C\C/C=C\C)CCN(CC(O)COC(=O)CCCCC/C=C\C/C=C\C)CCN(CC(O)COC(=O)CCCCC/C=C\C/C=C\C)CCN(CC(O)COC(=O)CCCCC/C=C\C/C=C\C)CC1 (centres unmarked) [AMG1556]	superseded or matched MD-1	85.76%	96 nm	0.121	
CCCCCC/C=C\CCCCCCCC(=O)OCC(O)CN1CCCN(CC(O)COC(=O)CCCCCCC/C=C\CCCCCC)CCN(CC(O)COC(=O)CCCCCCC/C=C\CCCCCC)CCCN(CC(O)COC(=O)CCCCCCC/C=C\CCCCCC)CC1 (centres unmarked) [AMG1043]			79.27 nm	0.169	
CCCCCCCCCCCCCCCCCC(=O)OCC(O)CN1CCCN(CC(O)COC(=O)CCCCCCCCCCCCCCCCC)CCN(CC(O)COC(=O)CCCCCCCCCCCCCCCCC)CCCN(CC(O)COC(=O)CCCCCCCCCCCCCCCCC)CC1 (mixture of isomers) [AMG10C18]					ethanol solubility [3]: poor ethanol solubility
CCCCCC/C=C\CCCC(=O)OCC(O)CN1CCN(CC(O)COC(=O)CCC/C=C\CCCCCC)CCN(CC(O)COC(=O)CCC/C=C\CCCCCC)CCN(CC(O)COC(=O)CCC/C=C\CCCCCC)CCN(CC(O)COC(=O)CCC/C=C\CCCCCC)CCN(CC(O)COC(=O)CCC/C=C\CCCCCC)CCN(CC(O)COC(=O)CCC/C=C\CCCCCC)CC1 (centres unmarked) [AMG1741]		82.99%	88 nm	0.156	antibody titers after vaccination [4]: high levels of antibody titers
CCC/C=C\CCCCCCC(=O)OCC(O)CN1CCN(CC(O)COC(=O)CCCCCC/C=C\CCC)CCN(CC(O)COC(=O)CCCCCC/C=C\CCC)CCN(CC(O)COC(=O)CCCCCC/C=C\CCC)CCN(CC(O)COC(=O)CCCCCC/C=C\CCC)CCN(CC(O)COC(=O)CCCCCC/C=C\CCC)CC1 (centres unmarked) [AMG1549]	superseded or matched MD-1	56.9%	100.4 nm	0.234	
CCC/C=C\C/C=C\CCCC(=O)OCC(O)CN1CCN(CC(O)COC(=O)CCC/C=C\C/C=C\CCC)CCN(CC(O)COC(=O)CCC/C=C\C/C=C\CCC)CCN(CC(O)COC(=O)CCC/C=C\C/C=C\CCC)CCN(CC(O)COC(=O)CCC/C=C\C/C=C\CCC)CCN(CC(O)COC(=O)CCC/C=C\C/C=C\CCC)CC1 (centres unmarked) [AMG1554]	superseded or matched MD-1	91.711%	105 nm	0.1	
CCCCCC/C=C\CCCC(=O)OCC(O)CN1CCCN(CC(O)COC(=O)CCC/C=C\CCCCCC)CCN(CC(O)COC(=O)CCC/C=C\CCCCCC)CCCN(CC(O)COC(=O)CCC/C=C\CCCCCC)CC1 (centres unmarked) [AMG1041]			81.79 nm	0.113	[AMG1041] ng/g tissue ([5]; Time 0 hrs): 0 ng/g tissue; [AMG1041] ng/g tissue ([5]; Time 1 hrs): 32200 ng/g tissue and 24800 ng/g tissue and 28000 ng/g tissue; [AMG1041] ng/g tissue ([5]; Time 2 hrs): 14000 ng/g tissue and 23400 ng/g tissue and 20400 ng/g tissue; [AMG1041] ng/g tissue ([5]; Time 4 hrs): 17200 ng/g tissue and 12600 ng/g tissue and 9400 ng/g tissue; [AMG1041] ng/g tissue ([5]; Time 8 hrs): 4800 ng/g tissue and 8000 ng/g tissue; [AMG1041] ng/g tissue ([5]; Time 24 hrs): 600 ng/g tissue; fold higher expression than AMG104 ([1]; IM, tail derivatives, 5 μg, 24 hours): ~3 fold; antibody titers after vaccination [4]: high levels of antibody titers
CCCCCCCCCCCCCCCC(=O)OCC(O)CN1CCCN(CC(O)COC(=O)CCCCCCCCCCCCCCC)CCN(CC(O)COC(=O)CCCCCCCCCCCCCCC)CCCN(CC(O)COC(=O)CCCCCCCCCCCCCCC)CC1 (mixture of isomers) [AMG10C16]					ethanol solubility [3]: poor ethanol solubility
C/C=C\CCCCCCCCC(=O)OCC(O)CN1CCN(CC(O)COC(=O)CCCCCCCC/C=C\C)CCN(CC(O)COC(=O)CCCCCCCC/C=C\C)CCN(CC(O)COC(=O)CCCCCCCC/C=C\C)CCN(CC(O)COC(=O)CCCCCCCC/C=C\C)CCN(CC(O)COC(=O)CCCCCCCC/C=C\C)CC1 (centres unmarked) [AMG1551]		67.41%	77 nm	0.145	in vivo mRNA delivery of alkene walking tail derivatives ([1]; IM, 0.1 μg, 6 hours): loss in potency
CCCCCC/C=C\CCCCOC(=O)CCN1CCN(CCC(=O)OCCCC/C=C\CCCCCC)CCN(CCC(=O)OCCCC/C=C\CCCCCC)CCN(CCC(=O)OCCCC/C=C\CCCCCC)CCN(CCC(=O)OCCCC/C=C\CCCCCC)CCN(CCC(=O)OCCCC/C=C\CCCCCC)CC1 [AMG1559]					fold drop in transfection versus AMG1541 ([1]; IM, analogue without β-amino alcohol): 34 fold
CCCC/C=C\C/C=C\CCC(=O)OCC(O)CN1CCN(CC(O)COC(=O)CC/C=C\C/C=C\CCCC)CCN(CC(O)COC(=O)CC/C=C\C/C=C\CCCC)CCN(CC(O)COC(=O)CC/C=C\C/C=C\CCCC)CCN(CC(O)COC(=O)CC/C=C\C/C=C\CCCC)CCN(CC(O)COC(=O)CC/C=C\C/C=C\CCCC)CC1 (centres unmarked) [AMG1553]	superseded or matched MD-1	89.0186%	94 nm	0.09	
CC/C=C\CCCCCCCC(=O)OCC(O)CN1CCN(CC(O)COC(=O)CCCCCCC/C=C\CC)CCN(CC(O)COC(=O)CCCCCCC/C=C\CC)CCN(CC(O)COC(=O)CCCCCCC/C=C\CC)CCN(CC(O)COC(=O)CCCCCCC/C=C\CC)CCN(CC(O)COC(=O)CCCCCCC/C=C\CC)CC1 (centres unmarked) [AMG1550]	superseded or matched MD-1	78.09%	93 nm	0.119	
CCCCCCCCC=CCCCCCCCC(=O)OCC(O)CN1CCCN(CC(O)COC(=O)CCCCCCCC=CCCCCCCCC)CCN(CC(O)COC(=O)CCCCCCCC=CCCCCCCCC)CCCN(CC(O)COC(=O)CCCCCCCC=CCCCCCCCC)CC1 (mixture of isomers) [AMG104]					fold higher mRNA expression than the next best lipid AMG1010 ([1]; Screen 3, IM, 1 μg, imaged 24 hours post injection): ~5 fold
CCCCC/C=C\CCCCC(=O)OCC(O)CN1CCN(CC(O)COC(=O)CCCC/C=C\CCCCC)CCN(CC(O)COC(=O)CCCC/C=C\CCCCC)CCN(CC(O)COC(=O)CCCC/C=C\CCCCC)CCN(CC(O)COC(=O)CCCC/C=C\CCCCC)CCN(CC(O)COC(=O)CCCC/C=C\CCCCC)CC1 (centres unmarked) [AMG1547]	superseded or matched MD-1	85.33%	100 nm	0.142	
CCCC/C=C\CCCCCC(=O)OCC(O)CN1CCN(CC(O)COC(=O)CCCCC/C=C\CCCC)CCN(CC(O)COC(=O)CCCCC/C=C\CCCC)CCN(CC(O)COC(=O)CCCCC/C=C\CCCC)CCN(CC(O)COC(=O)CCCCC/C=C\CCCC)CCN(CC(O)COC(=O)CCCCC/C=C\CCCC)CC1 (centres unmarked) [AMG1548]	superseded or matched MD-1	54.6%	104.7 nm	0.106	
CC/C=C\C/C=C\CCCCC(=O)OCC(O)CN1CCN(CC(O)COC(=O)CCCC/C=C\C/C=C\CC)CCN(CC(O)COC(=O)CCCC/C=C\C/C=C\CC)CCN(CC(O)COC(=O)CCCC/C=C\C/C=C\CC)CCN(CC(O)COC(=O)CCCC/C=C\C/C=C\CC)CCN(CC(O)COC(=O)CCCC/C=C\C/C=C\CC)CC1 (centres unmarked) [AMG1555]	superseded or matched MD-1	88.37%	83 nm	0.077	
